Reference: ChEMBL document CHEMBL2429768, “Eco-friendly synthesis and antimicrobial activities of substituted-5-(1H-indol-3-yl)methylene)-2,2-dimethyl-1,3-dioxane-4,6-dione derivatives” (2013)
≈ marks a conversion by molar mass, not a printed value.

Columns and labels:
Assay type in all cases: functional
Klebsiella pneumoniae [1] = test: Antibacterial activity against Klebsiella pneumoniae at 500 ug/ml after 24 hrs by agar well diffusion method; settings: read-out: DIZ
Staphylococcus aureus [2] = test: Antibacterial activity against Staphylococcus aureus ATCC 6538 at 300 ug/ml after 24 hrs by agar well diffusion method; settings: ATCC 6538, 24 h, read-out: DIZ
Bacillus subtilis [3] = test: Antibacterial activity against Bacillus subtilis at 100 ug/ml after 24 hrs by agar well diffusion method; settings: read-out: DIZ
Aspergillus niger [4] = test: Antifungal activity against Aspergillus niger at 50 ug/ml after 72 hrs by agar well diffusion method; settings: read-out: DIZ
Rhizoctonia solani [5] = test: Antifungal activity against Rhizoctonia solani at 200 ug/ml after 72 hrs by agar well diffusion method; settings: read-out: DIZ
Fusarium oxysporum [6] = test: Antifungal activity against Fusarium oxysporum after 72 hrs by agar well diffusion method
Staphylococcus aureus [7] = test: Antibacterial activity against Staphylococcus aureus ATCC 6538 at 50 ug/ml after 24 hrs by agar well diffusion method; settings: ATCC 6538, 24 h, read-out: DIZ
Aspergillus flavus [8] = test: Antifungal activity against Aspergillus flavus after 72 hrs by agar well diffusion method
Fusarium oxysporum [9] = test: Antifungal activity against Fusarium oxysporum at 200 ug/ml after 72 hrs by agar well diffusion method; settings: read-out: DIZ
Fusarium oxysporum [10] = test: Antifungal activity against Fusarium oxysporum at 100 ug/ml after 72 hrs by agar well diffusion method; settings: read-out: DIZ
Escherichia coli [11] = test: Antibacterial activity against Escherichia coli ATCC 8739 at 500 ug/ml after 24 hrs by agar well diffusion method; settings: ATCC 8739, 24 h, read-out: DIZ
Fusarium oxysporum [12] = test: Antifungal activity against Fusarium oxysporum at 300 ug/ml after 72 hrs by agar well diffusion method; settings: read-out: DIZ
Bacillus subtilis [13] = test: Antibacterial activity against Bacillus subtilis at 200 ug/ml after 24 hrs by agar well diffusion method; settings: read-out: DIZ
Bacillus subtilis [14] = test: Antibacterial activity against Bacillus subtilis after 24 hrs by agar well diffusion method
Escherichia coli [15] = test: Antibacterial activity against Escherichia coli ATCC 8739 after 24 hrs by agar well diffusion method; settings: ATCC 8739, 24 h
Rhizoctonia solani [16] = test: Antifungal activity against Rhizoctonia solani at 300 ug/ml after 72 hrs by agar well diffusion method; settings: read-out: DIZ
Staphylococcus aureus [17] = test: Antibacterial activity against Staphylococcus aureus ATCC 6538 at 500 ug/ml after 24 hrs by agar well diffusion method; settings: ATCC 6538, 24 h, read-out: DIZ
Aspergillus niger [18] = test: Antifungal activity against Aspergillus niger after 72 hrs by agar well diffusion method
Klebsiella pneumoniae [19] = test: Antibacterial activity against Klebsiella pneumoniae at 50 ug/ml after 24 hrs by agar well diffusion method; settings: read-out: DIZ
Fusarium oxysporum [20] = test: Antifungal activity against Fusarium oxysporum at 50 ug/ml after 72 hrs by agar well diffusion method; settings: read-out: DIZ
Bacillus subtilis [21] = test: Antibacterial activity against Bacillus subtilis at 500 ug/ml after 24 hrs by agar well diffusion method; settings: read-out: DIZ
Rhizoctonia solani [22] = test: Antifungal activity against Rhizoctonia solani after 72 hrs by agar well diffusion method
Aspergillus niger [23] = test: Antifungal activity against Aspergillus niger at 500 ug/ml after 72 hrs by agar well diffusion method; settings: read-out: DIZ
Staphylococcus aureus [24] = test: Antibacterial activity against Staphylococcus aureus ATCC 6538 at 100 ug/ml after 24 hrs by agar well diffusion method; settings: ATCC 6538, 24 h, read-out: DIZ
Escherichia coli [25] = test: Antibacterial activity against Escherichia coli ATCC 8739 at 100 ug/ml after 24 hrs by agar well diffusion method; settings: ATCC 8739, 24 h, read-out: DIZ
Klebsiella pneumoniae [26] = test: Antibacterial activity against Klebsiella pneumoniae at 200 ug/ml after 24 hrs by agar well diffusion method; settings: read-out: DIZ
Aspergillus flavus [27] = test: Antifungal activity against Aspergillus flavus at 100 ug/ml after 72 hrs by agar well diffusion method; settings: read-out: DIZ
Bacillus subtilis [28] = test: Antibacterial activity against Bacillus subtilis at 300 ug/ml after 24 hrs by agar well diffusion method; settings: read-out: DIZ
Escherichia coli [29] = test: Antibacterial activity against Escherichia coli ATCC 8739 at 200 ug/ml after 24 hrs by agar well diffusion method; settings: ATCC 8739, 24 h, read-out: DIZ
Klebsiella pneumoniae [30] = test: Antibacterial activity against Klebsiella pneumoniae at 100 ug/ml after 24 hrs by agar well diffusion method; settings: read-out: DIZ
Rhizoctonia solani [31] = test: Antifungal activity against Rhizoctonia solani at 100 ug/ml after 72 hrs by agar well diffusion method; settings: read-out: DIZ
Escherichia coli [32] = test: Antibacterial activity against Escherichia coli ATCC 8739 at 300 ug/ml after 24 hrs by agar well diffusion method; settings: ATCC 8739, 24 h, read-out: DIZ
Aspergillus niger [33] = test: Antifungal activity against Aspergillus niger at 100 ug/ml after 72 hrs by agar well diffusion method; settings: read-out: DIZ
Aspergillus flavus [34] = test: Antifungal activity against Aspergillus flavus at 50 ug/ml after 72 hrs by agar well diffusion method; settings: read-out: DIZ
Staphylococcus aureus [35] = test: Antibacterial activity against Staphylococcus aureus ATCC 6538 at 200 ug/ml after 24 hrs by agar well diffusion method; settings: ATCC 6538, 24 h, read-out: DIZ
Klebsiella pneumoniae [36] = test: Antibacterial activity against Klebsiella pneumoniae at 300 ug/ml after 24 hrs by agar well diffusion method; settings: read-out: DIZ
Escherichia coli [37] = test: Antibacterial activity against Escherichia coli ATCC 8739 at 50 ug/ml after 24 hrs by agar well diffusion method; settings: ATCC 8739, 24 h, read-out: DIZ
Aspergillus flavus [38] = test: Antifungal activity against Aspergillus flavus at 500 ug/ml after 72 hrs by agar well diffusion method; settings: read-out: DIZ
Aspergillus niger [39] = test: Antifungal activity against Aspergillus niger at 200 ug/ml after 72 hrs by agar well diffusion method; settings: read-out: DIZ
Aspergillus flavus [40] = test: Antifungal activity against Aspergillus flavus at 200 ug/ml after 72 hrs by agar well diffusion method; settings: read-out: DIZ
Fusarium oxysporum [41] = test: Antifungal activity against Fusarium oxysporum at 500 ug/ml after 72 hrs by agar well diffusion method; settings: read-out: DIZ
Bacillus subtilis [42] = test: Antibacterial activity against Bacillus subtilis at 50 ug/ml after 24 hrs by agar well diffusion method; settings: read-out: DIZ
Klebsiella pneumoniae [43] = test: Antibacterial activity against Klebsiella pneumoniae after 24 hrs by agar well diffusion method
Aspergillus flavus [44] = test: Antifungal activity against Aspergillus flavus at 300 ug/ml after 72 hrs by agar well diffusion method; settings: read-out: DIZ
Rhizoctonia solani [45] = test: Antifungal activity against Rhizoctonia solani at 500 ug/ml after 72 hrs by agar well diffusion method; settings: read-out: DIZ
Staphylococcus aureus [46] = test: Antibacterial activity against Staphylococcus aureus ATCC 6538 after 24 hrs by agar well diffusion method; settings: ATCC 6538, 24 h
Rhizoctonia solani [47] = test: Antifungal activity against Rhizoctonia solani at 50 ug/ml after 72 hrs by agar well diffusion method; settings: read-out: DIZ
Aspergillus niger [48] = test: Antifungal activity against Aspergillus niger at 300 ug/ml after 72 hrs by agar well diffusion method; settings: read-out: DIZ

## Cn1cc(C=C2C(=O)OC(C)(C)OC2=O)c2ccccc21
Klebsiella pneumoniae [1]
  zone of inhibition at 500 µg/mL: 31 mm
Staphylococcus aureus [2]
  zone of inhibition at 300 µg/mL: 18 mm
Bacillus subtilis [3]
  zone of inhibition at 100 µg/mL: 9 mm
Aspergillus niger [4]
  zone of inhibition at 50 µg/mL: 6 mm
Rhizoctonia solani [5]
  zone of inhibition at 200 µg/mL: 16 mm
Fusarium oxysporum [6]
  MIC: 35 µg/mL (≈ 123 µM)
Staphylococcus aureus [7]
  zone of inhibition at 50 µg/mL: 6 mm
Aspergillus flavus [8]
  MIC: 40 µg/mL (≈ 140 µM)
Fusarium oxysporum [9]
  zone of inhibition at 200 µg/mL: 16 mm
Fusarium oxysporum [10]
  zone of inhibition at 100 µg/mL: 12 mm
Escherichia coli [11]
  zone of inhibition at 500 µg/mL: 30 mm
Fusarium oxysporum [12]
  zone of inhibition at 300 µg/mL: 21 mm
Bacillus subtilis [13]
  zone of inhibition at 200 µg/mL: 12 mm
Bacillus subtilis [14]
  MIC: 30 µg/mL (≈ 105 µM)
Escherichia coli [15]
  MIC: 15 µg/mL (≈ 52.6 µM)
Rhizoctonia solani [16]
  zone of inhibition at 300 µg/mL: 21 mm
Staphylococcus aureus [17]
  zone of inhibition at 500 µg/mL: 25 mm
Aspergillus niger [18]
  MIC: 40 µg/mL (≈ 140 µM)
Klebsiella pneumoniae [19]
  zone of inhibition at 50 µg/mL: 9 mm
Fusarium oxysporum [20]
  zone of inhibition at 50 µg/mL: 7 mm
Bacillus subtilis [21]
  zone of inhibition at 500 µg/mL: 23 mm
Rhizoctonia solani [22]
  MIC: 35 µg/mL (≈ 123 µM)
Aspergillus niger [23]
  zone of inhibition at 500 µg/mL: 25 mm
Staphylococcus aureus [24]
  zone of inhibition at 100 µg/mL: 10 mm
Escherichia coli [25]
  zone of inhibition at 100 µg/mL: 13 mm
Klebsiella pneumoniae [26]
  zone of inhibition at 200 µg/mL: 18 mm
Aspergillus flavus [27]
  zone of inhibition at 100 µg/mL: 9 mm
Bacillus subtilis [28]
  zone of inhibition at 300 µg/mL: 15 mm
Escherichia coli [29]
  zone of inhibition at 200 µg/mL: 16 mm
Klebsiella pneumoniae [30]
  zone of inhibition at 100 µg/mL: 14 mm
Rhizoctonia solani [31]
  zone of inhibition at 100 µg/mL: 12 mm
Escherichia coli [32]
  zone of inhibition at 300 µg/mL: 20 mm
Aspergillus niger [33]
  zone of inhibition at 100 µg/mL: 10 mm
Aspergillus flavus [34]
  zone of inhibition at 50 µg/mL: 4 mm
Staphylococcus aureus [35]
  zone of inhibition at 200 µg/mL: 14 mm
Klebsiella pneumoniae [36]
  zone of inhibition at 300 µg/mL: 23 mm
Escherichia coli [37]
  zone of inhibition at 50 µg/mL: 8 mm
Aspergillus flavus [38]
  zone of inhibition at 500 µg/mL: 23 mm
Aspergillus niger [39]
  zone of inhibition at 200 µg/mL: 14 mm
Aspergillus flavus [40]
  zone of inhibition at 200 µg/mL: 12 mm
Fusarium oxysporum [41]
  zone of inhibition at 500 µg/mL: 29 mm
Bacillus subtilis [42]
  zone of inhibition at 50 µg/mL: 4 mm
Klebsiella pneumoniae [43]
  MIC: 15 µg/mL (≈ 52.6 µM)
Aspergillus flavus [44]
  zone of inhibition at 300 µg/mL: 15 mm
Rhizoctonia solani [45]
  zone of inhibition at 500 µg/mL: 29 mm
Staphylococcus aureus [46]
  MIC: 25 µg/mL (≈ 87.6 µM)
Rhizoctonia solani [47]
  zone of inhibition at 50 µg/mL: 7 mm
Aspergillus niger [48]
  zone of inhibition at 300 µg/mL: 18 mm
